Entries after “also recorded” stand apart in the source; their conditions may differ. Where two headings read alike, the source gives them in different places.
How the values were obtained:
[1] = test system: MDA-MB-231 (HER2−) cells; assay: HerDox targeted toxicity in vitro, separate cultures; assay type: cell-based, human; conditions: MDA-MB-231, day 3
Description: All treatments, N=3. FIG. 27A. Comparing cytotoxicity to HER2+ (MDAMB-435) and HER2− (MDA-MB-231) cells in separate cultures. Left, Relative survival (as % of untreated cells) on day 3 of treatment. Right, Micrograph of live cells after treatment. Control, mock (HBS) treatment. FIG. 27B, Receptor specificity of cytotoxicity. […] FIG. 27C, Toxicity to cells displaying differential HER2. Cytotoxicities from HerDox titrations were assessed on each cell line by metabolic assay and confirmed by crystal violet stain on day 3 of treatment. CD50 values (shown in log scale) were determined by non-linear regression analyses of HerDox killing curves using GraphPad Prism. The relative HER2 level of each cell line is shown next to each CD50 value. FIG. 27D, Targeting in a mixed MDA-MB-435(HER2+,GFP−)/MDA-MB-231(HER2−,GFP+) cell culture. Survival was determined by calculating the relative doubling time (DT) of experimental (exp) cells normalized by mock-treated (con) cells based on crystal violet stains (total cells) and GFP fluorescence (MDAMB-231 cells), and applying DTMDA-MB-435=DTTotal-DTMDA-MB-231 as previously described. Relative survival is shown for Day 2 of treatment. FIG. 27E, Targeted glioma cell death in vitro. U251 cells were treated once with the indicated HerDox (and competitive inhibitor where indicated) or Dox doses and measured for cell survival at the indicated time points after treatment. * P<0.05 compared to Mock.
For all in vitro treatments, cell lines were grown for ˜36 h after plating (104/well in 96-well dishes) to allow receptor re-expression, followed by media replacement with new media containing indicated constructs in reduced volume at the indicated final molarities for 4 h with rocking, followed by supplementation with additional media and continued growth for the indicated time periods. Except for the experiments performed on the U251 glioma cells (which received a one-time treatment), cells received these treatments daily while separate sets of wells were assessed for cell death by either metabolic assay (CellTiter Promega Corporation, Madison, WI, USA) or crystal violet stain each day. Where indicated, cells received competitive inhibitor (eHRG) at 10× molar excess for 30 min-1 h at 4° C. before treatment. Treatment of mixed (HER2+/HER2−) cell cultures with HerDox or Dox (0.5 uM), and cell surface receptor subunit level determination were performed as previously described.

[2] = mouse, in vivo
Description: Histology of myocardia from treated mice. Micrographs show representative H&E stained specimens from treated mice.
Female immunodeficient (nu/nu) mice (6-8 weeks; Charles River Laboratories International, Wilmington, MA, USA) received subcutaneous bilateral flank injections of 1×10^7 indicated cells and monitored until tumors reached ˜200-300 mm3, at which point the following treatments were initiated. […] To assess therapeutic efficacy, a new group of tumor-bearing mice received daily i.v. (tail vein) injections of HerDox or Dox at indicated doses for 7 days followed by continued monitoring of tumor volumes (assessed by measuring tumor length and width using calipers, and applying LxW2), animal weights, and heart function. […] Cardiac function in anesthetized mice was evaluated by a Vevo 770 High-Frequency Ultrasound system (VisualSonics, Toronto, Canada). Heart rate and body temperature were monitored. Superficial hair was removed from the region of interest with a depilatory cream (Nair) before imaging. The 2-dimensional guided M-mode images of the left ventricle were obtained in the short-axis view at the papillary level with the mouse in the supine position. All primary measurements were traced manually and digitized by goal-directed software installed within the echocardiograph. Three beats were averaged for each measurement. All measurements were done from leading edge to leading edge according to the American Society of Echocardiography guidelines. At animal study completion, tissue harvested from euthanized mice were fixed in 4% paraformaldehyde/PBS at 4° C. for 24 h followed by transfer into 20% sucrose/PBS and storage at −80° C. before immunohistochemical processing. Specimens and hematoxylin/eosin staining were prepared by AML Laboratories, Inc., Baltimore, MD, USA.

[3] = mouse, in vivo; remark: listed apart in the source
Description: (§1) Control (saline-injected) mice were euthanized early due to tumor ulceration, in compliance with IACUC policy. […] FIG. 30E, TUNEL staining and quantification in liver and kidney tissue obtained from treated mice. Micrographs obtained at 20× magnification (left set of panels) show fluorescently-stained nuclei in apoptotic cells (delineated areas are enlarged in micrographs to the right). Graph summarizes relative fluorescence intensities of each treated tissue (N>200 fields per treatment).
(§2) Fixed, sectioned tissues were processed by incubation in a dry 60° C. oven for 1 h followed by sequential submersion in xylenes for 4 min×5, then hydration in 100%, 95%, 90%, 80%, 70% ethanol for 3 min, 2 times each and final submersion in water. After Proteinase K (20 ug/ml in 10 mM Tris pH 7.8) incubation and rinsing in PBS, sections were treated for TUNEL staining following the manufacturer's instructions (XXX) and assessed by confocal fluorescence imaging. Here, 10 TUNEL images at different locations per tissue were acquired using a Leica confocal SPE microscope (20×, ex: 488 nm, and em: 530 nm). Central regions of each tissue were imaged to avoid fixation artifacts. Nuclear fluorescence intensities, reflective of DNA fragmentation, were measured and averaged using ImageJ.

[4] = CryoEM of HerDox particles; assay type: physicochemical; conditions: mostly round particles
Description: Sample preparation and imaging was performed by NanoImaging Services, Inc., La Jolla, CA, USA.
CryoEM was performed by NanoImaging Services, Inc. (La Jolla, CA, USA) implementing the following procedures (provided by NanoImaging Services, Inc.): Samples were preserved in vitrified ice supported by carbon coated holey carbon films on 400 mesh copper grids. All samples were prepared by applying a 3 μL drop of undiluted sample suspension to a cleaned grid, blotting away with filter paper and immediately proceeding with vitrification in liquid ethane. Grids were stored under liquid Nitrogen until transferred to the electron microscope for imaging. All grids were prepared the day the sample was delivered (complexes were assembled immediately before delivery). Electron microscopy was performed using an FEI Tecnai T12 electron microscope, operating at 120 KeV equipped with an FEI Eagle 4K×4K CCD camera. Vitreous ice grids were transferred into the electron microscope using a stage that maintains the grids at below −170 C. Images of the grid were acquired at multiple scales to assess the overall distribution of the specimen. After identifying potentially suitable target areas for imaging at lower magnifications, higher magnification images were acquired at nominal magnifications of 52,000× (0.21 nm/pixel) and 21,000× (0.50 nm/pixel). […]

[5] = HerDox stability in storage, ultrafiltration; assay type: physicochemical; conditions: 4° C., RT, or 37° C. over a 12 day period
Description: FIG. 34A, HerDox stability in different storage conditions. HerDox was incubated at indicated times and temperatures was applied to a 10K mwco ultrafiltration membrane every other day, and retentate and filtrate A480 measured to determine relative Dox retention or release from complexes, respectively. […] FIG. 34B, Assessing stability in serum-containing media by ultrafiltration. HerDox immobilized on Ni-NTA beads (Qiagen Inc., Valencia. CA, USA) by incubation on ice for 2 h with agitation followed by free HerDox removal via bead pelleting/washing in HBS received 10% fetal bovine serum (FBS), to mimic cell culture conditions, and incubated at 37° C. with agitation for the indicated time-points. At each time-point, samples were pelleted and mean A480±SD (N=3) of supernatants (Released) and bead eluates (Retained) were measured. […] Relative Dox release or retention in serum is expressed as normalized to control (corresponding serum-lacking sample). […] Dox fluorescence (top panel) was visualized by UV excitation. […] Dox (1.6 nmoles) was added to serum coated wells and incubated for 30 min at 37° C. with agitation before supernatants were removed and the wells washed once with HBS before fluorescence spectra were measured for pre-incubation sample (Input), supernatant (Free) and wells (Serum-bound). Fluorescence spectra were obtained at Ex 485 nm/Em 520-750 nm with a 515 nm cutoff filter. […]

[6] = TUNEL staining of liver and kidney tissue of treated mice; conditions: mouse, in vivo
Description: as §1, §2

Row | Molecule | toxicity / survival [1] | myocardial histology [2] | stroke volume, cardiac output, left ventricular internal dimension and volume ([2]; 0.004 mg/kg) | apoptosis in the kidney (TUNEL) [3] | apoptosis in the liver (TUNEL) [3] | particle diameter [4] | Dox release in storage [5] | apoptosis in the kidney (TUNEL) [6] | apoptosis in the liver (TUNEL) [6]
1 | COc1cccc2c1C(=O)c1c(O)c3c(c(O)c1C2=O)C[C@@](O)(C(=O)CO)C[C@@H]3O[C@H]1C[C@H](N)[C@H](O)[C@H](C)O1.Cl [Dox, Doxorubicin-HCl, reference compound] | no preference | myofibrillar degeneration | modest to marked reductions | Neither Dox nor HerDox showed substantial apoptosis | marked apoptosis |  |  |  | 
2 | HerDox: self-assembled nanoparticle of oligonucleotide duplex, doxorubicin and HerPBK10 (conjugate) LPPRLKEMKSQESAAGSKLVLRCETSSEYSSLRFKWFKNGNELNRKNKPQNIKIQKKPGKSELRINKASLADSGEYMCKVISKLGNDSASANITIVESNEIITGMPASTEGAYVSSESPIRISVSTEGANTSSSTSTSTTGTSHLVKCAEKEKTFCVNGGECFMVKDLSNPSRYLCKCQPGFTGARCTENVPMKVQNQEKAEELYMRRAAMYEEGPPPSYESVVSAAPVAAALGSPFDAPLDPPFVPPRYLRPTGGRNSIRYSELAPLFDTTRVYLVDNKSTDVASLNYQNDHSNFLTTVIQNNDYSPGEASTQTINLDDRSHWGGDLKTILHTNMPNVNEFMFTNKFKARVMVSRLPTKDNQVELKYEWVEFTLPEGNYSETMTIDLMNNAIVEHYLKVGRQNGVLESDIGVKFDTRNFRLGFDPVTGLVMPGVYTNEAFHPDIILLPGCGVDFTHSRLSNLLGIRKRQPFQEGFRITYDDLEGGNIPALLDVDAYQASLKDDTEQGGGGAGGSNSSGSGAEENSNAAAAAMQPVEDMNDHAIRGDTFATRAEEKRAEAEAAAEAAAPAAQPEVEKPQKKPVIKPLTEDSKKRSYNLISNDSTFTQYRSWYLAYNYGDPQTGIRSWTLLCTPDVTCGSEQVYWSLPDMMQDPVTFRSTRQISNFPVVGAELLPVHSKSFYNDQAVYSQLIRQFTSLTHVFNRFPENQILARPPAPTITTVSENVPALTDHGTLPLRNSIGGVQRVTITDARRRTCPYVYKALGIVSPRVLSSRTFKKKKKKKKKK |  |  |  |  |  | ~10 nm | no detectable Dox release | Neither Dox nor HerDox showed substantial apoptosis | did not; also recorded: negligible apoptosis
